Reference: PubChem BioAssay (NCI)
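The compound was tested at five concentrations on cells cultured in 96-well plates, with a 48-hour exposure period. Here, GI50 denotes the concentration required for 50% inhibition of growth. Definition used: TGI = concentration required for complete inhibition of growth.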

How the values were obtained:
Experiment in all cases: NCI anticancer screen, dose series, 48 h
PC-3 prostate = tested on: PC-3 prostate
HOP-92 NSCLC = tested on: HOP-92 NSCLC
HCT-116 colon = tested on: HCT-116 colon
HOP-62 NSCLC = tested on: HOP-62 NSCLC
A498 renal = tested on: A498 renal
BT-549 breast = tested on: BT-549 breast
UACC-257 melanoma = tested on: UACC-257 melanoma
SNB-19 CNS = tested on: SNB-19 CNS

Row | SMILES | TGI (PC-3 prostate) [µM] | TGI (HOP-92 NSCLC) [µM] | TGI (HCT-116 colon) [µM] | TGI (HOP-62 NSCLC) [µM] | TGI (A498 renal) [µM] | TGI (BT-549 breast) [µM] | TGI (UACC-257 melanoma) [µM] | TGI (SNB-19 CNS) [µM] | GI50 (HOP-92 NSCLC) [µM] | GI50 (A498 renal) [µM] | GI50 (BT-549 breast) [µM]
1 | O=[N+]([O-])c1ccc(C2=NOC(c3ccccc3F)N2C23CC4CC(CC(C4)C2)C3)cc1 (configuration not stated) | > 100 | > 100 | > 100 | > 100 | > 100 | > 100 | > 100 | – | – | – | –
2 | COCC1OC(OC2C3=C(C(C)C)CCC3(C)/C=C3\C(CCC3(O)COC)C(C)C2O)C(O)C2OC3OC12OC3(C)C1CO1 (configuration not stated) | > 100 | > 100 | > 100 | > 100 | > 100 | 87.8 | > 100 | > 100 | – | – | –
3 | O=C/C(=C(/Br)I)c1ccccc1 | 18.2 | 4.64 | 4.52 | 29.8 | 33.9 | 4.86 | 17.8 | 31.4 | – | – | –
4 | Cc1cn(C2CCC(/C=N\O)O2)c(=O)[nH]c1=O (configuration not stated) | > 100 | > 100 | > 100 | > 100 | > 100 | > 100 | > 100 | > 100 | – | – | –
5 | COc1ccc(N2C(=O)C3ON(C(C(N)=O)c4ccccc4)C(c4ccc(-c5ccccc5)cc4)C3C2=O)cc1 (configuration not stated) | > 50 | – | > 50 | > 50 | > 50 | > 50 | > 50 | > 50 | – | – | –
6 | O=c1cc(N2CCOCC2)[nH]c(=O)n1-c1cccc(C(F)(F)F)c1 | – | > 100 | > 100 | > 100 | > 100 | > 100 | > 100 | – | – | – | –
7 | CCOC(=O)CCC(NC(=O)c1ccc(Oc2nc3ccc(C(F)(F)F)cc3nc2-c2ccccc2)cc1)C(=O)OCC (configuration not stated) | > 100 | 98.4 | > 100 | > 89.5 | > 31.6 | – | > 100 | > 100 | – | – | –
8 | COc1ccc2nc3cccc([N+](=O)[O-])c3c(NCCO)c2c1 | 0.0982 | 0.0499 | 0.00545 | 0.0668 | 0.117 | – | 0.0813 | 0.875 | – | – | –
9 | Cc1cccc2c1Oc1ccccc1C2NC(=O)c1ccc([N+](=O)[O-])cc1 (configuration not stated) | > 100 | > 100 | > 100 | > 100 | > 100 | > 100 | > 100 | > 100 | – | – | –
10 | CC1OC(OC2C(O[C@H]3CC[C@@]4(C)[C@@H](CC[C@@H]5[C@@H]4CC[C@]4(C)[C@@H]6[C@H](C[C@@H]54)O[C@]4(CC[C@@H](C)CO4)[C@H]6C)C3)OC(CO)C(OC3OC(CO)C(O)C(OC4OCC(O)C(O)C4O)C3OC3OCC(O)C(O)C3O)C2O)C(O)C(O)C1O (some centres not stated) | 1.8 | 3.11 | 1.02 | 2.03 | 3.78 | 2.36 | 2.34 | 2.33 | – | – | –
11 | O=C1Nc2cccc(Cl)c2/C1=C\c1c(Cl)nc2sccn12 | > 100 | 46.2 | > 100 | 33.8 | > 100 | 74.9 | > 100 | 39.7 | – | – | –
12 | CCOc1ccc(/C(O)=C/c2nc3ccccc3nc2/C=C(\O)c2ccc(OCC)cc2)cc1 | > 100 | > 100 | > 100 | > 100 | > 100 | > 100 | > 100 | > 100 | – | – | –
13 | O=P(Oc1ccccc1)(Oc1ccccc1)Oc1c[nH]c2ccccc12 | 8.26 | 7.15 | 38.8 | 36.3 | 29.1 | 34.4 | 21.8 | 27.7 | – | – | –
14 | C[C@H](Nc1c(O)c2c(c(O)c1Cl)C(=O)C=CC2=O)C(=O)Nc1ccc([N+](=O)[O-])cc1 | 8.89 | 5.16 | 2.7 | 6.74 | 4.8 | > 10 | 3.41 | 9.59 | – | – | –
15 | O=C1NC(Cc2c[nH]c3ccccc23)C(=O)N2C(C3CCCCC3)c3[nH]c4ccccc4c3C[C@@H]12 (some centres not stated) | 28.3 | 46.2 | 22.1 | 44.9 | 37.5 | 40.8 | 29 | > 100 | – | – | –
16 | OC12COc3ccccc3C1Oc1ccccc1C2 (configuration not stated) | > 100 | > 100 | > 100 | > 100 | > 100 | > 100 | > 100 | – | – | – | –
17 | CCCc1c(OC)c(=O)c2c(OC)cc(OC)c3c4c(OC)cc(OC)c5c(=O)c(OC)c(CCC)c(c1c23)c54 | – | 23.4 | 28 | 33 | 37.1 | 31.4 | 46.6 | 34.6 | – | – | –
18 | C[C@]12CC[C@@H]3c4cc(OCC(F)(F)F)c(O)cc4C(=O)C[C@H]3[C@@H]1CC[C@@H]2O | > 67.7 | > 100 | > 100 | > 100 | > 100 | > 100 | > 100 | > 79.5 | – | – | –
19 | CSc1nc(-c2cc3c(c(SC)n2)CCCCC3)cc2c1CCCCC2 | > 100 | – | > 100 | > 100 | > 100 | > 100 | > 100 | > 100 | – | – | –
20 | COc1cc(CCCOC(=O)/C=C/c2ccc(O)c(O)c2)cc(O)c1O | > 100 | – | 34.9 | > 100 | > 100 | > 100 | > 100 | > 100 | – | – | –
21 | CC(C)(C)N(Cc1ccc2c(c1)OCO2)C(=O)/C=C\S(=O)c1ccccc1 (configuration not stated) | 9.71 | 8.18 | 7.84 | 17.7 | 21.4 | 10.3 | 12.5 | 20.7 | – | – | –
22 | CC(N)C(C)Cc1ccccc1 (configuration not stated) | > 100 | > 100 | > 100 | > 100 | > 100 | > 100 | > 100 | > 100 | – | – | –
23 | NCCCNc1nc2ccccc2c2c(=O)c3cc(C(F)(F)F)ccc3sc12 | – | 2.85 | – | – | 3.23 | 27.1 | – | – | 1.37 | 1.73 | 7.3
24 | O=[N+]([O-])c1cccc2nc3ccccc3c(NCCc3cccc[n+]3[O-])c12 | 1.51 | < 0.0507 | – | 0.245 | 0.225 | 0.0917 | 0.0647 | 1.62 | – | – | –
25 | CN(NC(=O)CCCl)C1=NCCN1 | > 100 | > 100 | > 100 | > 100 | > 100 | > 100 | > 100 | > 100 | – | – | –
